Each block holds one compound with its values, some of them ahead of it.
Columns and labels:
Histamine H3 receptor = Histamine H3 receptor (Cavia porcellus, UniProt Q9JI35); assay: (§1) Compound was evaluated for its binding affinity against Histamine H3 receptor of guinea pig brain membrane
Cavia porcellus = assay: Effective dose was reported after intravenous administration to guinea pig; type: functional
[1] = molecular target: Histamine H3 receptor (Cavia porcellus) (UniProt Q9JI35); assay: Compound was evaluated for its binding affinity against Histamine H3 receptor of guinea pig brain membrane less then 50% inhibition when screened at 1 ug/mL
Histamine H3 receptor (Cavia porcellus), sequence (Q9JI35 whole entry): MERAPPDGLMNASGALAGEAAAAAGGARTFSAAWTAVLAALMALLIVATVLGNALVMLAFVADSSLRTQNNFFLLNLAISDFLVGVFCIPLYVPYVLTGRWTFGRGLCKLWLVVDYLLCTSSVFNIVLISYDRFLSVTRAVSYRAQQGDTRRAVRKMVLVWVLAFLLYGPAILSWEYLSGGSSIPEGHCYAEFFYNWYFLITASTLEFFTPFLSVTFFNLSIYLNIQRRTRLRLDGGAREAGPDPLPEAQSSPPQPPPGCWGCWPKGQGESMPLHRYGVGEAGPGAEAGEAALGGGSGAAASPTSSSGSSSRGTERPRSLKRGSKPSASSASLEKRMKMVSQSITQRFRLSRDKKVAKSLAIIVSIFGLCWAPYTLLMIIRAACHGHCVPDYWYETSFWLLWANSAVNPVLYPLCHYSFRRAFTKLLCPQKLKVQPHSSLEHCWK

[2] = molecular target: Histamine H3 receptor (Cavia porcellus) (UniProt Q9JI35); assay: Compound was evaluated for its inhibitory activity against Histamine H3 receptor of guinea pig brain membrane at a concentration of 1 ug/mL
[3] = molecular target: T1, Alpha-2A adrenergic receptor (Homo sapiens) (UniProt P08913); assay: Antagonistic activity towards Alpha-2A adrenergic receptor was calculated; type: functional
T1 sequence (whole entry): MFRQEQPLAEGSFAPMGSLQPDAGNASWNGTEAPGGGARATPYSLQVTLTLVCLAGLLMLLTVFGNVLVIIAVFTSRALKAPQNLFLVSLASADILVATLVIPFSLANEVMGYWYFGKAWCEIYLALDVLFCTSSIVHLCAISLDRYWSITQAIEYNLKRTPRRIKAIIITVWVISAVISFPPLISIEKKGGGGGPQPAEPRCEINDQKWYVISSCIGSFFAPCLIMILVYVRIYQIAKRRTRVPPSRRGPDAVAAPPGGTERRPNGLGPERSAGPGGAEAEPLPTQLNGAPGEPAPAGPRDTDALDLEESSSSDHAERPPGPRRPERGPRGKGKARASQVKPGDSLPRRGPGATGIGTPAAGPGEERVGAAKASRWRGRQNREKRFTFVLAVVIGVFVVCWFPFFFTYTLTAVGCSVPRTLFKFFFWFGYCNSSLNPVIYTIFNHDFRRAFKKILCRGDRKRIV

[4] = Compound at a dose 10 mg/kg was administered to rat and was evaluated for bioavailability after administration into rat at 10 mg/kg; settings: in vivo, read-out: Bioavailabiility
[5] = Pharmacokinetic parameter area under curve (AUC) was measured after administration into rat at 10 mg/kg; type: ADME, organism-based; parameters: dose 10 mg/kg; settings: in vivo
[6] = Pharmacokinetic parameter Cmax was measured after administration into monkey at 3 mg/kg; type: ADME, organism-based; parameters: dose 3 mg/kg; settings: cercopithecidae, in vivo, read-out: AUC
[7] = Antagonistic activity towards dopamine uptake was calculated; type: functional
Cercopithecidae = assay: Pharmacokinetic parameter area under curve (AUC) was measured after administration into monkey at 3 mg/kg; settings: in vivo
[8] = Pharmacokinetic parameter Cmax was measured after administration into rat at 10 mg/kg; type: ADME, organism-based; parameters: dose 10 mg/kg; settings: in vivo
[9] = Compound at a dose 3 mg/kg was administered to monkey and was evaluated for half life after administration into monkey at 3 mg/kg; type: ADME, organism-based; settings: cercopithecidae, in vivo
[10] = molecular target: Histamine H3 receptor (Cavia porcellus) (UniProt Q9JI35); assay: as §1; settings: concentration not given here
[11] = molecular target: Histamine H3 receptor (Cavia porcellus) (UniProt Q9JI35); assay: Compound was evaluated for its binding affinity against Histamine H3 receptor of guinea pig brain membrane, less then 50% inhibition when screened at 1 ug/mL

Histamine H3 receptor, sequence (Q9JI35 whole entry): as the sequence (Q9JI35 whole entry) above

SMILES: N=C(NCc1ccc(Cl)cc1)c1ccc(Cc2c[nH]cn2)cc1
- ED50 (Cavia porcellus): 0.3 mg/kg

SMILES: O=C(NCc1ccc(Cc2c[nH]cn2)cc1)NCc1cc(C(F)(F)F)cc(C(F)(F)F)c1
- Ki (Histamine H3 receptor): 90 nM

SMILES: CN(Cc1ccc(Cc2cnc[nH]2)cc1)C(=O)N(C)c1cc(Cl)cc(Cl)c1
- Ki (Histamine H3 receptor): 370 nM

SMILES: O=C(NCc1cccc(Cc2c[nH]cn2)c1)Nc1cc(Cl)cc(Cl)c1
- inhibition [2]: 33%

SMILES: O=C(NCc1ccc(Cc2c[nH]cn2)cc1)Nc1cc(Cl)cc(Cl)c1
- Concentration [3]: 207 nM
- bioavailability [4]: 44%
- AUC [5]: 18100 ng·h/mL
- Cmax [6]: 1700 ng/mL
- Concentration [7]: 805 nM
- AUC (Cercopithecidae): 12600 ng·h/mL
- Cmax [8]: 1700 ng/mL
- half-life [9]: 264 min

SMILES: O=C(Nc1ccc(Cl)cc1)OCc1ccc(Cc2c[nH]cn2)cc1
- Ki (Histamine H3 receptor): 25 nM

SMILES: O=C(Nc1ccc(Cc2c[nH]cn2)cc1)Nc1cc(Cl)cc(Cl)c1
- inhibition [2]: 36%

SMILES: NC(=O)NCc1ccc(Cc2c[nH]cn2)cc1
- inhibition [11]: < 50%

More lines, now with the values ahead:

- Ki (Histamine H3 receptor): 37 nM
SMILES: O=C(Nc1ccccc1)OCc1ccc(Cc2c[nH]cn2)cc1

- Ki (Histamine H3 receptor): 430 nM
SMILES: O=C(NCCc1ccccc1Cl)NCc1ccc(Cc2c[nH]cn2)cc1

- Ki (Histamine H3 receptor): 270 nM
SMILES: O=C(NCc1ccc(Cc2c[nH]cn2)cc1)Nc1cccnc1

- inhibition [1]: < 50%
SMILES: O=C(NCc1ccccc1)NCc1ccc(Cc2c[nH]cn2)cc1

- Ki (Histamine H3 receptor): 3 nM
SMILES: O=C(NCc1ccc(Cc2c[nH]cn2)cc1)Nc1cc(Cl)nc(Cl)c1

- inhibition [10]: < 50%
SMILES: O=C(NCc1ccc(Cc2c[nH]cn2)cc1)Nc1cnccn1
